In data set [1] the target is T1, CGI-58 (Homo sapiens, UniProt Q8WTS1, S237E/W19A/W23A/W27A).
T1 sequence (Q8WTS1 1-349 W19A/W23A/W27A/S237E): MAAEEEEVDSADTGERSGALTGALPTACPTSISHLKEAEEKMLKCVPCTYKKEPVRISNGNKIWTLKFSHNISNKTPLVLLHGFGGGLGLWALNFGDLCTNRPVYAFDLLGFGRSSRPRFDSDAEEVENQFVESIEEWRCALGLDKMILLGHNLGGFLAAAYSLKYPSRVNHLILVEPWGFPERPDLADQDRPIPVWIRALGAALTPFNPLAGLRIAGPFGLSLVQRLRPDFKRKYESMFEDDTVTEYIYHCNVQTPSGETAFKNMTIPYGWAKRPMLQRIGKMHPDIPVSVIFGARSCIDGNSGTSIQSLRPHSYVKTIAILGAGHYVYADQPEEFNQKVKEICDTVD
In words: intrinsic tryptophan fluorescence quenching, […] protein, […] °C. Type of data set: binding.

Data set [2] concerns the molecule itself. Briefly: SEC. In general terms: In gel filtration, larger molecules generally elute earlier.

For the molecule `CCCCCCCC/C=C\CCCCCCCC(=O)SCCNC(=O)CCNC(=O)[C@H](O)C(C)(C)COP(=O)(O)OP(=O)(O)OC[C@H]1O[C@@H](n2cnc3c(N)ncnc32)[C@H](O)[C@@H]1OP(=O)(O)O` [oleoyl-CoA], the Kd (usually a measure of binding affinity in units of concentration) in data set [1] worked out at 2.3 ± 0.3 µM.

B1: human CGI-58 (Comparative Gene Identification-58) wild-type protein (natural protein, UniProt Q8WTS1 1-349, looked up)
chain: MAAEEEEVDSADTGERSGWLTGWLPTWCPTSISHLKEAEEKMLKCVPCTYKKEPVRISNGNKIWTLKFSHNISNKTPLVLLHGFGGGLGLWALNFGDLCTNRPVYAFDLLGFGRSSRPRFDSDAEEVENQFVESIEEWRCALGLDKMILLGHNLGGFLAAAYSLKYPSRVNHLILVEPWGFPERPDLADQDRPIPVWIRALGAALTPFNPLAGLRIAGPFGLSLVQRLRPDFKRKYSSMFEDDTVTEYIYHCNVQTPSGETAFKNMTIPYGWAKRPMLQRIGKMHPDIPVSVIFGARSCIDGNSGTSIQSLRPHSYVKTIAILGAGHYVYADQPEEFNQKVKEICDTVD
On to B1, for which the binding result in data set [2] is given as “binds”.

For the origin of these results see publication PMC9026008 (ACS Omega, 2022).
